Data reported in patent US20220265759A1, “COMPOSITION AND METHOD FOR PROMOTING WOUND HEALING” (THE BOARD OF TRUSTEES OF THE UNIVERSITY OF ILLIOIS, priority 2019, published 2022).
Peptide text beside a SMILES is read from it. * marks the point of attachment. Myristoyl = CCCCCCCCCCCCCC(=O)*

Experiments:
[1] = tested on: CCL28, IL-6, TNF-α, IL-1β, CCR10, VEGF, IL-13, IL-4, eNOS, CD31, Flk-1, VE-cadherin; assay: ELISA and real-time RT-PCR of inflammatory factors and EC markers in db/db mouse wounds; type: in vivo, db/db mice
Description: Real-Time RT-PCR. Total cellular RNA from mouse skin wounds was extracted using nucleic acid extraction reagent sold under the tradename TRIZOL®. mRNA expression of different genes was examined by real-time RT-PCR that employed a SYBR Green PCR mix. Relative gene expression was determined by the ΔΔCt method based on GAPDH levels as described previously (Chen, et al. (2013) J. Immunol. 190:5256-5266).
ELISA Measurement. Mouse skin wounds were collected, lysed, and prepared for ELISA measurement of mouse CCL28 and IL-6 according to manufacturer's instructions.
It was investigated whether topical application of Myr-CBD7 affects these factors in db/db mice known to play important roles in the healing processes. Mouse wounds on day 3 (Inflammation Phase) and day 12 (Proliferation Phase) were collected and inflammatory factor levels were determined by ELISA and real-time RT-PCR.
On day 12 after Myr-CBD7 treatment, elevated levels of eNOS/NO were observed as well as enhanced angiogenesis in mouse wounds. Furthermore, Myr-CBD7 treatment lead to elevated levels of VEGF, anti-inflammatory cytokines IL-13 and IL-4 (M2 markers), as well as EC markers eNOS, CD31, Flk-1 and VE-cadherin in mouse wounds.

eNOS = eNOS expression in db/db mouse wounds (western blot); type: in vivo, db/db mice; settings: day 12
Description: Immunoblot and Co-Immunoprecipitation (Co-IP). After serum starvation, inhibitors were added 45 minutes prior to stimulation for indicated times at 37° C., and cells were then collected and lysed for western blot analysis. After probing for p-eNOS (Ser1177), p-p85 (Tyr458), p-Src (Tyr 416), and p-ERK (T202/Y204), the same blots were stripped and re-probed for total proteins mentioned above. For detection of CCL28-induced protein levels of β-catenin and Bcl-2, near-confluent endothelial cells were incubated with 500 ng/ml CCL28 for 24 hours in EGM-2 medium containing 1% FBS.
Two 8 mm full thickness excisional wounds were made on the dorsal skin of diabetic db/db mice and then 50 μl of 50 μM Myr-CBD7 peptide was topically applied. […] Reduced CCR10-eNOS interaction was also observed in the mouse wounds following treatment with Myr-CBD7 peptide as determined by Co-IP (FIG. 6).

CCCCCCCCCCCCCC(=O)N[C@@H](CCCCN)C(=O)N[C@H](C(=O)N[C@@H](CO)C(=O)N[C@@H](C)C(=O)N[C@@H](CO)C(=O)N[C@@H](CC(C)C)C(=O)N[C@@H](CCSC)C(=O)O)[C@@H](C)CC [Myr-CBD7, myr-KISASLM] (Myristoyl-KISASLM-OH)
elevated: level of EC marker CD31 ([1]; day 12 wounds) | level of EC marker Flk-1 ([1]; day 12 wounds) | level of EC marker VE-cadherin ([1]; day 12 wounds) | level of EC marker eNOS ([1]; day 12 wounds) | level of IL-4 ([1]; day 12 wounds) | level of IL-13 ([1]; day 12 wounds) | level of VEGF ([1]; day 12 wounds)
significantly reduced: protein level of CCL28 ([1]; day 3 wounds, ELISA) | protein level of IL-6 ([1]; day 3 wounds, ELISA) | protein level of TNF-α ([1]; day 3 wounds, ELISA)
reduced: level of CCR10 ([1]; day 3, compared to control peptide) | mRNA level of IL-6 ([1]; day 3 wounds)
significantly elevated: eNOS expression in wounds (eNOS)
